In patent US4293713A, “Novel 1,1,3,5-substituted biuret compound and a pharmaceutical composition containing the same” (priority 1979, dated 1981):
Read-outs that look alike come from different tables or passages of the source.

Legend:
ddy strain of male mice [1] = assay: Analgesic activity, acetic acid-induced stretching method; type: in vivo, mouse (ddy strain; conditions: Mus musculus; for ED50: read-out: Analgesic activity, acetic acid-induced stretching method, 50% effective dose, ED50 (values with Δ marks)
Method: (§1) Next, several tests for determining the pharmacological properties, in that acute toxicity, anti-pyretic activity, analgesic activity and anti-inflammatory activity of the present 1,1,3,5-substituted biuret compounds of the formula (1) were conducted and the test results are shown in Table (2). In the tests, each compounds to be tested was used as a suspension in 0.25% carboxymethylcellulose solution. Methods for testing are explained as follows:
According to the method reported by Koster et al., [Fed. Proc., Vol. 18, pp. 412 (1959)], the ddy strain of male mice (body weight, 20-25 g) were used as test animals. The mice were fasted overnight, 100 mg/kg body weight of the test compound was administered orally, then 1 hour after the administration, 0.2 ml of 0.7% acetic acid solution was injected intraperitoneally. The acetic acid-induced stretching symptom of mouse was observed. Analgesic activity of the test compound was calculated as the inhibitory ratio (%). In Table 2, the values in Parentheses show the data obtained from the test by using the dosage other than 100 mg/kg body weight. Further, the values indicated with Δ marks show 50% effective dose, ED50 (mg/kg body weight).

[2] = Acute toxicity (oral, 7 days observation); type: in vivo; conditions: mouse, in vivo, read-out: Acute toxicity, 50% lethal dose, LD50 (values with Δ marks)
Method: as §1
(§2) The ddy strain of male mice (body weight, 20-25 g) were used as test animals. The mice were fasted overnight and the compound to be tested was administered orally. […] The lethal dose (mg/kg, body weight) of the test compound was determined in connection with the death number of mice/the number of mice tested. In Table 2, the values indicated with Δ marks are 50% lethal dose, LD50 (mg/kg, body weight).

[3] = tested on: Wistar strain of male rats; assay: Anti-inflammatory activity, acute carrageenin-induced inflammatory test; type: in vivo, rat (Wistar strain; conditions: Rattus norvegicus
Method: as §1
According to the method of acute carrageenin-induced inflammatory test [Folia Pharmacologia Japonica, Vol. 56, pp. 575 (1960)], the Wistar strain of male rats (body weight, 150-180 g) were used as test animals. The rats were fasted overnight, 100 mg/kg body weight of the test compound was administered orally, then 1 hour after the administration, 0.1 ml of 1% carrageenin solution, as the inflammation inducing agent, was injected subcutaneously to the hindpaw of the rat and the volume of the hindpaw was measured at time sequences. Anti-inflammatory activity of the test compound was calculated as inflammation inhibitory ratio (%) at 3 hours after the injection of the inflammation inducing agent.

[4] = tested on: Wistar strain of male rats; assay: Anti-pyretic activity (dry-yeast induced fever); type: in vivo, rat (Wistar strain; conditions: oral, up to 4 hours after administration, dose not given
Method: as §1
According to the method reported by Tanabe [Folia Pharmacologia Japonica, Vol. 73, pp. 803 (1977)], the Wistar strain of male rats (150-180 g body weight) were used as test animals. The rats were fasted overnight, and 1 ml/100 g (body weight) of 10% dry-yeast suspension were subcutaneously injected on the back of the rats. Five hours after the injection, the test compound was administered orally, then the body temperature of the rat was measured at time sequences. Anti-pyretic activity of the test compound was determined as the FI (febril index) by integrating pyrogenetic curve up to 4 hours after the administration of the test compound with time, and indicated as inhibitory ratio (%) shown by the following formula, [formula]

ddy strain of male mice [5] = assay: Analgesic activity, Haffner method; type: in vivo, mouse (ddy strain; conditions: with threshold morphine hydrochloride s.c.; for Analgesic activity, Haffner method, 50% effective dose, ED50 (values with Δ marks): oral, range in parentheses; for Analgesic activity, Haffner method, inhibitory ratio: 100 mg/kg oral
Method: as §1
According to the modified method reported by Fujimura et al., [Bulletin of the Institute for Chemical Research, Kyoto University, No. 25, pp. 36 (1951)], the ddy strain of male mice (body weight, 20-25 g) were used as test animals. The mice were fasted overnight, 100 mg/kg body weight of the test compound was administered orally, then 45 minutes after the administration, the threshold amount (1.5-2.5 mg/kg body weight) of morphine hydrochloride was injected subcutaneously. Then 1-hour pain reaction of the mouse caused by a clamp was observed. Analgesic activity of the test compound was calculated as the inhibitory ratio (%). In Table 2, the values in parentheses show the data obtained from the test by using the dosage other than 100 mg/kg body weight. Further, the values indicated with Δ marks show 50% effective dose, ED50 (mg/kg body weight).

ddy strain of male mice [6] = assay: Acute toxicity (oral, 7 days observation); type: in vivo; conditions: oral, mice, 7 days
Method: as §1, §2

[7] = po, 3 h, read-out: Anti-inflammatory activity, inflammation inhibitory ratio
[8] = po, read-out: Analgesic activity, acetic acid-induced stretching method, inhibitory ratio
[9] = po, 2 h, read-out: Anti-inflammatory activity, inflammation inhibitory ratio (2 hours value)
[10] = 100 mg/kg oral, rats, 2 hours value, read-out: Anti-inflammatory activity, inflammation inhibitory ratio (2 hours value)

## COc1ccc(NC(=O)N(C)C(=O)N(C)C)cc1 [Compound No. 17, 1,1,3-Trimethyl-5-(4-methoxyphenyl)biuret]
Ddy strain of male mice [1]; po
  ED50: 39 mg/kg
[2]; oral, mice, 7 days
  LD50 at 168 h: 1800 mg/kg
[3]; [7]
  inhibition in vivo at 100 mg/kg: 33%
[4]
  Anti-pyretic activity, inhibitory ratio of febril index (FI): 75%
Ddy strain of male mice [5]
  Analgesic activity, Haffner method, 50% effective dose, ED50 (values with Δ marks): 42 to 153 mg/kg

## CN(C)C(=O)N(C)C(=O)Nc1ccccc1 [Compound No. 1, 1,1,3-Trimethyl-5-phenylbiuret]
Ddy strain of male mice [1]; po
  ED50: 75 mg/kg
[2]; oral, mice, 7 days
  LD50 at 168 h: 1710 mg/kg
[3]; [7]
  inhibition in vivo at 100 mg/kg: 59%
[4]
  Anti-pyretic activity, inhibitory ratio of febril index (FI): 80%
Ddy strain of male mice [5]
  Analgesic activity, Haffner method, 50% effective dose, ED50 (values with Δ marks): 68(52-88) mg/kg

## CCN(C)C(=O)N(C)C(=O)Nc1ccccc1 [compound 33, 1-Ethyl-1,3-dimethyl-5-phenylbiuret]
Ddy strain of male mice [1]; [8]
  inhibition in vivo at 80 mg/kg: 50%
[2]; oral, mice, 7 days
  LD50 at 168 h: 1290 mg/kg
[3]; 100 mg/kg oral, rats, 3 hours after carrageenin, read-out: Anti-inflammatory activity, inflammation inhibitory ratio
  inhibition in vivo at 100 mg/kg: 34%
[4]
  Anti-pyretic activity, inhibitory ratio of febril index (FI): 49%

## CCCN(C)C(=O)N(C)C(=O)Nc1ccccc1 [Compound No. 34, 1,3-dimethyl-1-propyl-5-phenylbiuret]
Ddy strain of male mice [1]; [8]
  inhibition in vivo at 60 mg/kg: 75%
Ddy strain of male mice [6]; 1000 mg/kg
  Acute toxicity, death number of mice/number of mice tested: 1/4
Ddy strain of male mice [6]; 2000 mg/kg
  Acute toxicity, death number of mice/number of mice tested: 4/4
[3]; [9]
  inhibition in vivo at 100 mg/kg: 26%
[4]
  Anti-pyretic activity, inhibitory ratio of febril index (FI): 44%
Ddy strain of male mice [5]
  Analgesic activity, Haffner method, inhibitory ratio: 37.5%

## CN(C)C(=O)N(C)C(=O)Nc1cccc(C(F)(F)F)c1 [compound 13, 1,1,3-Trimethyl-5-(3-trifluoromethylphenyl)biuret]
Ddy strain of male mice [1]; [8]
  inhibition in vivo at 100 mg/kg: 37.5%
Ddy strain of male mice [6]; 1000 mg/kg
  Acute toxicity, death number of mice/number of mice tested: 0/4
Ddy strain of male mice [6]; 2000 mg/kg
  Acute toxicity, death number of mice/number of mice tested: 4/4
[3]; [9]
  inhibition in vivo at 100 mg/kg: 32%
[4]
  Anti-pyretic activity, inhibitory ratio of febril index (FI): 62%
Ddy strain of male mice [5]
  Analgesic activity, Haffner method, 50% effective dose, ED50 (values with Δ marks): 64(37-112) mg/kg

## Cc1cccc(C)c1NC(=O)N(C)C(=O)N(C)C [compound 24, 1,1,3-Trimethyl-5-(2,6-dimethylphenyl)biuret]
Ddy strain of male mice [1]; [8]
  inhibition in vivo at 100 mg/kg: 75%
[2]; oral, mice, 7 days
  LD50 at 168 h: 595 mg/kg
[4]
  Anti-pyretic activity, inhibitory ratio of febril index (FI): 69%
Ddy strain of male mice [5]
  Analgesic activity, Haffner method, inhibitory ratio: 37.5%

## CN(C)C(=O)N(C)C(=O)Nc1ccc([N+](=O)[O-])cc1 [compound 15, 1,1,3-Trimethyl-5-(4-nitrophenyl)biuret]
Ddy strain of male mice [1]; 100 mg/kg oral, mice, read-out: Analgesic activity, acetic acid-induced stretching method, inhibitory ratio
  inhibition in vivo at 100 mg/kg: 100%
Ddy strain of male mice [6]; 500 mg/kg
  Acute toxicity, death number of mice/number of mice tested: 2/4
[3]; [7]
  inhibition in vivo at 100 mg/kg: 32%
[4]
  Anti-pyretic activity, inhibitory ratio of febril index (FI): 26%
Ddy strain of male mice [5]
  Analgesic activity, Haffner method, inhibitory ratio: 50%

## CN(C)C(=O)N(C)C(=O)NC1CCCCC1 [compound 29, 1,1,3-Trimethyl-5-cychlohexylbiuret]
Ddy strain of male mice [1]; [8]
  inhibition in vivo at 200 mg/kg: 87.5%
[2]; po
  LD50 at 168 h: 1450 mg/kg
[3]; [10]
  inhibition in vivo at 100 mg/kg: 24%
Ddy strain of male mice [5]
  Analgesic activity, Haffner method, inhibitory ratio: 25%

## CN(C)C(=O)N(C)C(=O)Nc1ccccc1C(F)(F)F [compound 12, 1,1,3-Trimethyl-5-(2-trifluoromethylphenyl)biruet]
Ddy strain of male mice [1]; [8]
  inhibition in vivo at 100 mg/kg: 12.5%
Ddy strain of male mice [6]; 1000 mg/kg
  Acute toxicity, death number of mice/number of mice tested: 1/4
[3]; [7]
  inhibition in vivo at 100 mg/kg: 66%
[4]
  Anti-pyretic activity, inhibitory ratio of febril index (FI): 65%
Ddy strain of male mice [5]
  Analgesic activity, Haffner method, inhibitory ratio: 37.5%

## Cc1ccc(NC(=O)N(C)C(=O)N(C)C)cc1 [Compound No. 22, 1,1,3-Trimethyl-5-(4-methylphenyl)biuret]
Ddy strain of male mice [1]; po
  ED50: 33 mg/kg
Ddy strain of male mice [6]; 2000 mg/kg
  Acute toxicity, death number of mice/number of mice tested: 0/4
[3]; [9]
  inhibition in vivo at 100 mg/kg: 23%
[4]
  Anti-pyretic activity, inhibitory ratio of febril index (FI): 52%
Ddy strain of male mice [5]
  Analgesic activity, Haffner method, 50% effective dose, ED50 (values with Δ marks): 80(42-152) mg/kg

## COc1ccccc1NC(=O)N(C)C(=O)N(C)C [compound 16, 1,1,3-Trimethyl-5-(2-methoxyphenyl)biuret]
Ddy strain of male mice [1]; [8]
  inhibition in vivo at 100 mg/kg: 37.5%
Ddy strain of male mice [6]; 1000 mg/kg
  Acute toxicity, death number of mice/number of mice tested: 0/4
Ddy strain of male mice [6]; 2000 mg/kg
  Acute toxicity, death number of mice/number of mice tested: 2/4
[3]; [10]
  inhibition in vivo at 100 mg/kg: 35%
[4]
  Anti-pyretic activity, inhibitory ratio of febril index (FI): 13%
Ddy strain of male mice [5]
  Analgesic activity, Haffner method, inhibitory ratio: 25%
